Measurements published in US9623021B2, “Nuclear receptor binding agents” (GTX, Inc., priority 2007, dated 2017).

How the values were obtained:
C-26 colon cancer cells = experiment: C-26 colon cancer cell proliferation (3H thymidine incorporation); format: cell-based; conditions: treated for 3 days, FIG. 22
Experimental: (§1) The effects of treatment of an ER-β selective NRBA of this invention on cancer cell proliferation was examined using LNCaP prostate cancer cells and C-26 colon cancer cells. LNCaP or C-26 cells were plated in growth medium in 24 well and 6 well plates, respectively. LNCaP cells were treated for 6 days and C-26 cells were treated for 3 days at the indicated concentration. ^3H thymidine incorporation was measured at the end of treatment as an indicator of cell proliferation.

[1] = system: LNCaP cells and human prostate stromal cells xenograft; experiment: LNCaP-stromal cell xenograft tumor growth; format: in vivo, nude mice; conditions: 30 mg/kg/day for 21 days, by day 21
Experimental: Prostate tumor xenografts were established with LNCaP cells and human prostate stromal cells in nude mice to establish the in vivo anti-proliferative effects of these ER-β NRBAs. A 4:1 ratio (based on cell number) of LNCaP:stroma cells was injected subcutaneously in nude mice and allowed to grow until they attained 100 mm^3 in volume, as measured by calipers. […] Tumor volumes were measured twice a week and percent tumor volume calculated, after 10, 14 and 21 days.

ER-α = ER-α (Rattus norvegicus (Rat), UniProt P06211); format: cell-based; conditions: 100 nM NRBA compared to 1 nM estradiol
Experimental: COS or 293 cells were plated in DME without phenol red+10% cs FBS at 90,000 cells per well in 24 well plates, and were transfected with 0.25 μg of the vector “ERE-LUC”, where a firefly luciferase gene was driven by two estrogen responsive elements and 0.02 μg of the control CMV-LUC, Renilla where a luciferase gene was driven by a CMV promoter. […] All the receptors were cloned from rat tissue into the PCR3.1 vector backbone. Twenty four hours post transfection, cells were treated with compounds of this invention, estrogen, DHT, and other NRBAs or combinations thereof. Cells were harvested 48 hrs after transfection, and assayed for firefly and Renilla luciferase activity.

[2] = system: LNCaP prostate cancer cells; experiment: LNCaP prostate cancer cell proliferation (3H thymidine incorporation); format: cell-based; conditions: treated for 6 days, FIG. 21
Experimental: as §1

[3] = target: ERβ ligand binding domain (Homo sapiens (Human), UniProt Q92731); experiment: Competitive [3H]-estradiol radioligand binding, ERβ (Example 21); conditions: ratio between the binding constants of ER-α and ER-β
Chain of ERβ ligand binding domain (Q92731 264-498, species assumed): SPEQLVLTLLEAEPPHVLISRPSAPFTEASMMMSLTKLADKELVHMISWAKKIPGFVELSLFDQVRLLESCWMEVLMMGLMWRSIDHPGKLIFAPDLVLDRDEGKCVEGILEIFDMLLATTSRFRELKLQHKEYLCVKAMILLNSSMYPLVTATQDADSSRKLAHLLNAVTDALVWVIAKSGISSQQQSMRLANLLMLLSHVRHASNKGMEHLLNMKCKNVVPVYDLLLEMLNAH
Experimental: (§2) ER binding affinity was determined via one of the following methods:
(§3) Briefly, the incubation mixture was filtered through a high affinity protein binding filter, and washed several times to remove any unbound radioactivity. The filter plate was air dried and sealed on the bottom.
(§4) Following incubation, plates were harvested onto GF/B filters and radioactivity was measured with a TopCount NXT (PerkinElmer). Nonspecific binding was subtracted from total binding to yield specific binding.

[4] = target: ERα ligand binding domain (Homo sapiens (Human), UniProt P03372); experiment: Competitive [3H]-estradiol radioligand binding, ERα (Example 21)
Chain of ERα ligand binding domain (P03372 whole entry, looked up, species assumed, the tested form may be a part): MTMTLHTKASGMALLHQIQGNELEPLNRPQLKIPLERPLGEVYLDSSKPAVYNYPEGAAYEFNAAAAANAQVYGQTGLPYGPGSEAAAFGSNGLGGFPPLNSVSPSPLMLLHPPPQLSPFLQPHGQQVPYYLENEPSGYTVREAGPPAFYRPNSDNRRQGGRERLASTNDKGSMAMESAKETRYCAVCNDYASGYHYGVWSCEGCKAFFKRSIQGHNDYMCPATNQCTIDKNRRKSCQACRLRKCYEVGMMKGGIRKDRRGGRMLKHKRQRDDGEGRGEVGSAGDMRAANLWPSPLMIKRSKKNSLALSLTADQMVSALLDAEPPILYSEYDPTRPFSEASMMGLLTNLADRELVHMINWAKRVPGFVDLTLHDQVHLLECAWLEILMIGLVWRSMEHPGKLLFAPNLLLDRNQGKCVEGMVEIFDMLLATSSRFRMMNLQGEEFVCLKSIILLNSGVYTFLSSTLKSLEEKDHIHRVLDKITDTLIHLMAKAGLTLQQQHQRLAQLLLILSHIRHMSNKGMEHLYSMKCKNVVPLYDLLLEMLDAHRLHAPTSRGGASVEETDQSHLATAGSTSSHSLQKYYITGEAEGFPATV
Experimental: as §2, §3, §4

paw edema = experiment: Carrageenan-induced paw edema (acute inflammation model); format: in vivo; conditions: per-oral, 1 hr prior to Carrageenan challenge; measured 4 hours post-Carrageenan injection
Experimental: FIG. 14 depicts the effect of 12b on the edema volume which was induced by Carrageenan (i.e. Carrageenan-induce raw paw edema as an acute inflammation model).
To determine the anti-inflammatory effects of ER-β NRBAs in vivo, animal paws were injected with carrageenan, which elicits an acute local inflammatory response. Per-oral treatment of 12b.

uterus = experiment: Uterotropic assay; conditions: 10 mg/kg/day orally, 3 days
Experimental: Statistical differences among groups were evaluated by one-way ANOVA. Rats were treated for 3 consecutive days and then sacrificed 24 h after the last dose. The body of the uterus was cut just above its junction with the cervix and at the junction of the uterine horns with the ovaries. The uterus was weighed with and without intrauterine fluid. Statistical comparisons were made between the weights of empty uteri.

[5] = system: Rat Aortic Smooth Muscle Cells (RASMC); experiment: RASMC cell proliferation assay (WST-1); conditions: 10 μM and 30 μM

## O=c1c2ccc(O)cc2c(Br)cn1-c1ccc(O)cc1 [Compound 12b, 4-bromo-6-hydroxy-2-(4-hydroxyphenyl)-isoquinolin-1(2H)-one]
C-26 colon cancer cells
  growth of C-26 colon cancer cells: significantly inhibited the growth
[1]
  tumor growth (percent tumor volume): inhibited the growth of tumor significantly
ER-α
  Estradiol activity at 100 nM, ER-α: 31.2%
[2]
  growth of LNCaP prostate cancer cells: significantly inhibited the growth
[3]
  Ki Ratio (ER-α/ER-β): 20
[4]
  Ki: 998 nM
Paw edema
  reduction in paw edema: 53%

## CC/C(=C(\c1ccccc1)c1ccc(OCCN(C)C)cc1)c1ccccc1 [Tamoxifen, tamoxifen]
uterus
  uterine growth / uterine weight: stimulated the proliferation of uterus significantly
[5]
  cell numbers compared to day 0: toxicity
